Test results: US20140357620A1, “METHOD FOR ADMINISTRATION OF A GAMMA SECRETASE INHIBITOR” (Hoffmann-La Roche Inc., priority 2011, published 2014)
Read-outs that look alike come from different tables or passages of the source.

Legend:
[1] = design: species or system patients; conditions: human, in vivo
Method: If deemed safe, then dose escalation to dose intensities at and above that given in the 3-4 schedule at 270 mg/day will be performed. For safety reasons, the first cohorts of patients enrolled in schedules C, D, E and F will be treated with lower doses (dose level 1: 14% to 37% of dose intensity of 3-4 schedule at 270 mg). Then in the subsequent cohorts, the dose will be escalated by 50%-100%.

[2] = ongoing first phase 1 trial of Compound A (pharmacokinetics); design: species or system patients; conditions: human, in vivo, oral
Source text: This schedule (C) includes 11 dosing days in a 3-week cycle.

highest safe dose tested so far [1]: 270 mg/day
half-life ([2]; mean, read-out: mean terminal half-life (converted)): 42.2 h
half-life ([2]; range, read-out: terminal half-life (range)): 10 to 93 h
SMILES: CC(C)(C(=O)NCC(F)(F)C(F)(F)F)C(=O)N[C@@H]1C(=O)Nc2ccccc2-c2ccccc21 [Compound A, 2,2-dimethyl-N-((S)-6-oxo-6,7-dihydro-5H-dibenzo[b,d]azepin-7-yl)-N′-(2,2,3,3,3-pentafluoro-propyl)-malonamide]
